Experimental findings from US7199217B2, “Amidated glucagon-like peptide-1” (Eli Lilly and Company, priority 2000, dated 2007) are described below.

One data set addresses T1, human GLP-1 receptor (Homo sapiens, UniProt P43220).
T1 construct: expressed in transfected cells; host or cells: HEK-293 Aurora CRE-BLAM cells
Kind of data set: In vitro activity, HEK-293 Aurora CRE-BLAM cells, β-lactamase reporter. The conditions noted are these: comparison with the acid form; test not specified. In kind it is cell-based. The text has this:
The day after seeding, the medium is replaced with plasma free medium.

Data set [1] in a line: Aggregation time in solution, turbidity at 350 nm while stirred. In kind it is physicochemical. The conditions noted are these: 37° C.; 0.3 mg/mL in 10 mM citrate, 10 mM phosphate, 150 mM NaCl, pH 7.4 to 7.5, stirred. As to the method: The peptides in solution were stirred at elevated temperature in a suitable buffer while recording turbidity at 350 nm as a function of time. Time to the onset of aggregation was measured to quantify the potential of each GLP-1 molecule to aggregate under these stressed conditions.
In general, the peptides in solution were stirred at elevated temperature in a suitable buffer while recording turbidity at 350 nm as a function of time. Time to the onset of aggregation was measured to quantify the potential of a given GLP molecule to aggregate under these stressed conditions.
The GLP-1 peptides were first dissolved under alkaline conditions (pH 10.5) for 30 minutes to dissolve any pre-aggregated material. The solution was then adjusted to pH 7.4 and filtered. Specifically, 4 mg of a lyophilized GLP-1 peptide was dissolved in 3 mL of 10 mM phosphate/10 mM citrate. The pH was adjusted to 10.0–10.5 and held for 30 minutes. The solution was adjusted with HCl to pH 7.4 and filtered through a suitable filter, for example a Millex® GV syringe filter (Millipore Corporation, Bedford, Mass.). This solution was then diluted to a final sample containing 0.3 mg/mL protein in 10 mM citrate, 10 mM phosphate, 150 mM NaCl, and adjusted to pH 7.4 to 7.5. […] Every five minutes the turbidity of the solution was measured at 350 nm on an AVIV Model 14DS UV-VIS spectrophotometer (Lakewood, N.J.). […]

T1 sequence (P43220 24-463): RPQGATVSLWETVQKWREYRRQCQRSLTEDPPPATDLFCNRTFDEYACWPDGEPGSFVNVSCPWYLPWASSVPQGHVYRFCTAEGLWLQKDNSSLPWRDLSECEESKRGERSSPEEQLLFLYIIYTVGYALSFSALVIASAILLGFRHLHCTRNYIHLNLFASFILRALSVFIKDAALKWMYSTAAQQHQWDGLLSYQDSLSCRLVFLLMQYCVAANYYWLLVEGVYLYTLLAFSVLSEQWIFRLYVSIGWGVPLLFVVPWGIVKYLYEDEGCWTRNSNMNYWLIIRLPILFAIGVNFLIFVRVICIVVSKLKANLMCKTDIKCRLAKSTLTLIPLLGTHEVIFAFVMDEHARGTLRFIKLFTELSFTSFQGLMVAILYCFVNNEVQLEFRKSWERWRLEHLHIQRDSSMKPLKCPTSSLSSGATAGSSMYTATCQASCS

With Val^8-GLP-1(7–36)NH2, the “Potency compared to the acid form Val^8-GLP-1(7–37)OH (in words)” value on human GLP-1 receptor is “slightly less potent than the acid form”.
On to “Val^8-GLP-1(7–37)NH2 (HXEGTFTSDVSSYLEXQAAKXFIXWLVKGRX; C-terminal amide) [GLP-1(7–37)OH wherein Ala at position 8 has been substituted with Val and Gly at position 37 has been amidated]”, for which the “Time to onset of aggregation” value in data set [1] is reported as “approximately 23 hours”.
